Laboratory results: patent US20050053704A1, “Acidic composition and its uses” (Mionix Corporation, priority 2003, published 2005)
Read-outs that look alike come from different tables or passages of the source.

What was measured:
L. monocytogenes [1] = details: cited from earlier work
L. monocytogenes [2] = details: dipping in 5% acid, refrigerated storage; cited from earlier work
[3] = Contact of acidic solution with human skin; details: solution with a pH of less than 0.5

SMILES: CC(O)C(=O)[O-].[Na+] (stereo not drawn) [Sodium lactate]
- Effect on growth of L. monocytogenes (L. monocytogenes [1]; 3 or 4% compared to 0 or 2%, cooked beef stored at 10° C. (Miller and Acuff 1994)): effective against the growth

SMILES: CC(=O)O [acetic acid]
- Effect on L. monocytogenes of dipping in acid (L. monocytogenes [2]): not only killed, but also prevented from growing during 90 days of refrigerated storage

SMILES: CC(O)C(=O)O (stereo not drawn) [lactic acid]
- Effect on L. monocytogenes of dipping in acid (L. monocytogenes [2]): not only killed, but also prevented from growing during 90 days of refrigerated storage

SMILES: O=S(=O)(O)O [sulfuric acid]
- Irritation of a hand put into the solution [3]: an irritation would occur within a relatively short span of time

SMILES: CC(O)C(=O)O (stereo not drawn) [lactate]
- Effect on growth of L. monocytogenes (L. monocytogenes [1]; lactate (4%), sterile broth, chicken and beef (Shelef and Yang 1991)): growth suppression
- Listeristatic effect, L. monocytogenes strain Scott A (L. monocytogenes [1]; lactate concentrations less than 4%, meat model system (Chen and Shelef 1992)): not listeristatic
